This test concerns the target T1, His6STAT3^127-715 (Homo sapiens, UniProt P40763).
T1 construct: made in house; host or cells: E. coli BL21 (DE3)
As to the kind of experiment: Biolayer interferometry (BLI): SteE^138-148 phosphopeptides binding to recombinant STAT3. Conditions: Octet R8, 25 °C, biotinylated peptide immobilised on streptavidin sensors, pH 7.7, 0.005% Tween-20, steady-state one-site fit, read-out: Kd (affinity of SteE^138-148 phosphorylated peptide for STAT3). How it is done: Recombinant Salmonella Typhimurium His6-SteE^ΔN20 and human His6-STAT3^127-715 were ligated into pET49 vector using Gibson Assembly; the N-terminal His6-tag is cleavable with HRV 3 C protease.
Binding affinities of His6-STAT3^127-715 to SteE peptides were derived from […] measured on an Octet R8 system (Sartorius) at 25 °C. Biotinylated SteE peptides were synthesised by the Chemical Biology Science Technology Platform at the Francis Crick Institute and dissolved from lyophilised stock in the respective protein buffer to which 0.005% Tween-20 was added (BLI buffer). Appropriate serial dilutions of His6-STAT3^127-715 were prepared in 25 mM HEPES, 200 mM NaCl, 10 mM MgCl2, 0.5 mM TCEP at pH 7.7. SteE peptides were immobilised on Streptavidin (SA) sensors at 0.2 µg/mL by incubation until the linear signal increase started to plateau (up to 160 s), followed by a sensor wash in BLI buffer for 50 s to stabilise the baseline. Association was recorded by incubating the sensors with His6-STAT3^127-715 for 300 s. Subsequent dissociation in BLI buffer was followed for up to 300 s. Data were acquired using Octet BLI Discovery software 12.2.2.20 and processed with Octet BLI Analysis software 12.2.2.4 by subtraction of reference wells without protein and y alignment of the data to the baseline. […]
(Biolayer interferometry detects binding as a change in optical thickness at a sensor tip.)

SMILES strings stand for the structures. Square brackets hold non-standard residues; d marks the D form. Peptide text beside a SMILES is read from it. pY = N[C@@H](Cc1ccc(OP(=O)(O)O)cc1)C(=O)O; pS = N[C@@H](COP(=O)(O)O)C(=O)O

As usually defined, the Kd is the constant that tells how readily two partners part at equilibrium.

T1 sequence (P40763 127-715): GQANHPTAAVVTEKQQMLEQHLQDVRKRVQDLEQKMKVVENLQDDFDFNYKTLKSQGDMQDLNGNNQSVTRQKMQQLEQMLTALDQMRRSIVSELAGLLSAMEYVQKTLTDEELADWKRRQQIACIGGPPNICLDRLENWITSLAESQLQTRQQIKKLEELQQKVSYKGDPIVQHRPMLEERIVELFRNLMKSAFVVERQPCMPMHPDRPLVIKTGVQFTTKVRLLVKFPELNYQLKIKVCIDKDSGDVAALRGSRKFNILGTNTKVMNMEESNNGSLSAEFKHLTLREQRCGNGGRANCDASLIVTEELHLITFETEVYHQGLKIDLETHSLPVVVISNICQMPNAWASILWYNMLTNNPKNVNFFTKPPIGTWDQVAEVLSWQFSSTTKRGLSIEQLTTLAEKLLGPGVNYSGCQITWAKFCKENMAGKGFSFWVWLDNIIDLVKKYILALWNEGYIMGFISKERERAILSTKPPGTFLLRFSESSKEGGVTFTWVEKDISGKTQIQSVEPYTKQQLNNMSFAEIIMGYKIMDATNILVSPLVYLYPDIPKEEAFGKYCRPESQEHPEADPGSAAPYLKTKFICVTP

On to `CC[C@H](C)[C@H](NC(=O)[C@H](Cc1ccc(OP(=O)(O)O)cc1)NC(=O)CNC(=O)[C@H](COP(=O)(O)O)NC(=O)[C@@H]1CCCN1C(=O)[C@@H]1CCCN1C(=O)[C@@H](N)CC(N)=O)C(=O)N[C@@H](C)C(=O)N[C@@H](CCC(N)=O)C(=O)N[C@@H](Cc1ccc(O)cc1)C(=O)N[C@@H](CCCNC(=N)N)C(=O)O` [SteE_pS141pY143] (H-NPP[pS]G[pY]IAQYR-OH), for which the Kd was found to be 1400 ± 80 nM.

For the origin of these results see PMC12287357, “Bacterial effectors mediate kinase reprogramming through mimicry of conserved eukaryotic motifs” (EMBO Reports, 2025).
